# Experimental data: PMC10949195, “Exponential Combination of a and e/g Intracellular Peptide Libraries Identifies a Selective ATF3 Inhibitor” (ACS Chemical Biology, 2024)
# Legend:
# [1] = tested on: M2 macrophages differentiated from the human THP-1 monocytic cell line; test: THP-1 polarization assay and CCL-4 ELISA; assay type: cell-based; settings: M2 macrophages from THP-1 (IL-4 polarized); 20 μM peptide with NLS-TAT appendage; 48 h; versus untreated
# Excerpt: ATF3 is a transcriptional repressor that regulates both the extent and duration of pro-inflammatory gene expression.[17] Specifically, ATF3 has been implicated in the transcriptional repression of chemokines including chemokine (C–C motif) ligand 4 (CCL4),[18] also known as macrophage inflammatory protein (MIP-1β), which promotes recruitment of additional immune cells to inflamed tissues. In the context of cancer, ATF3 activity counters antitumor immunity and promotes tumor growth. We therefore explored the effect of the ATF3W-aeg antagonist peptide on CCL4 expression in M2 anti-inflammatory macrophages differentiated from the human THP-1 monocytic cell line. […]
# Figure 10 ATF3W-aeg peptide stimulates expression of pro-inflammatory cytokine in M2 macrophages. CCL4 protein levels were measured by ELISA from supernatants of M2 macrophage cultures treated with either 20 μM ATF3W-aeg or negative control peptide (****p < 0.0001). […]
# THP-1 cells were seeded in 12-well format at a concentration of 5 × 10^5 cells/well and treated with 7.5 ng/mL Phorbol 12-Myristate 13-Acetate (PMA, Sigma-Aldrich) in RPMI media supplemented with 10% FBS and 55 μM β-mercaptoethanol (BME). […] After 48 h, supernatants were collected and clarified by centrifugation, and the CCL-4 concentration was assessed by ELISA (MIP-1b Human Instant ELISA Kit, ThermoFisher Scientific) according to the manufacturer’s protocol.
# [2] = CD thermal denaturation of peptide in isolation; assay type: physicochemical; settings: CD at 222 nm; 150 μM total peptide; 10 mM potassium phosphate, 100 mM potassium fluoride, pH 7
# Excerpt: Following the observed significant increase in global secondary structure content for the ATF3-ATF3W_aeg complex relative to component peptides (Figure 6), we next analyzed the stability of the complex by undertaking thermal denaturation experiments (Figure 7). […] Moreover, consistent with spectral data, the clear increase from the average profile of the component peptides relative to that of the measured is most pronounced in the combined construct (Figure 7, red hash vs black). This provides robust additional evidence for a preferential interaction between ATF3 and ATF3W_aeg that is improved over either the core a or electrostatic e/g constructs.
# Shown are thermal stabilities of peptide pairs measured via temperature dependence of the CD signal at 222 nm. The thermal denaturation profiles for (a) ATF3-ATF3W_a, (b) ATF3-ATF3W_eg, and (c) ATF3-ATF3W_aeg show a substantial increase in the transition midpoint (Tm = 59 °C) relative to component peptides (black vs red hash). Experiments were performed in 10 mM potassium phosphate and 100 mM potassium fluoride (pH 7.0). All spectra were recorded at 1 °C increments at a total peptide concentration of 150 μM and fitted to a two-state denaturation model. […]
# ATF3 = molecular target: T1, ATF3 (Homo sapiens, UniProt P18847); test: Size-exclusion chromatography of ATF3-ATF3W_aeg mixture; assay type: binding; settings: Superdex Peptide 10/300 GL, RT; 20 μM total peptide
# T1 construct: We focus on the selective targeting of the ATF3 leucine zipper dimerization domain using intracellular peptide library screening; made in house; host or cells: chemical solid-phase peptide synthesis (no expression host)
# T1 sequence (P18847 110-143): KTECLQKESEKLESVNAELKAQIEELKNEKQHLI
# Experimental: During SEC experiments, monomeric ATF3 (Figure 8, blue line) and ATF3W_aeg (Figure 8, green line) eluted at approximately 20 min. These contrast with the dimeric profile observed for ATF3-ATF3W_aeg (Figure 8, black line), which occurred at approximately 19 min. For all samples, elution profiles were consistent with either a validated monomer or dimer elution pattern.[15]
# Figure 8 SEC profiles indicate that ATF3W_aeg binds ATF3. Shown are size exclusion chromatography profiles for interacting peptides. The peak at approx 19 min for the ATF3-ATF3W_aeg mixture (black trace) represents a dimeric sample while ATF3 (blue trace) and ATF3W_aeg (green trace) generate a peak at approx 20 min, indicating the presence of a monomer. These experiments, undertaken at a total peptide concentration of 20 μM, provide additional evidence for selectivity of the ATF3-ATF3W_aeg interaction. Arrows show controls from previous peptides with elution times for a 32 mer Fos monomeric peptide (20 min) and a 37 mer cJun–FosW heterodimer (18.5 min).[15]
# Size-exclusion experiments were performed at RT using a Superdex Peptide 10/300 GL column (GE Healthcare Life Sciences) as described previously.[23]
substance,measurement,setting,value
Ac-ELAALEQKAYALKQENAALEKEVAALEQKIAALK-NH2 (N-terminus and C-terminus assumed) [ATF3W_aeg],"effect on CCL4 expression (protein in supernatant, ELISA)",[1],significantly increased CCL4 expression
same,self-association in isolation (thermal denaturation profile),[2],inability of ATF3W_aeg to form a stable homodimer in isolation
same,SEC elution time of ATF3-ATF3W_aeg mixture,ATF3,approximately 19 min
same,oligomeric state of ATF3-ATF3W_aeg interaction by SEC,ATF3,exclusively dimeric
